Assay results from US20040242459A1 (priority 2001, published 2004).
“And” between values parts separate entries of the source, which are not always exact repeats. Identical values can stand only once.

Key:
[1] = biological target: T1, recombinant human PPARδ (GST-PPARδ) (Homo sapiens, UniProt Q03181); test: Scintillation Proximity Assay, displacement of [3H2]Compound B from PPARδ; format: binding; settings: human PPARδ binding; read-out: IC50 (μM: SPA or BND) Delta
T1 construct: The full length human cDNAs for PPARδ and PPARα were subcloned into the pGEX-KT expression vector; made in house; host or cells: E. coli
T1 sequence (Q03181 1-441): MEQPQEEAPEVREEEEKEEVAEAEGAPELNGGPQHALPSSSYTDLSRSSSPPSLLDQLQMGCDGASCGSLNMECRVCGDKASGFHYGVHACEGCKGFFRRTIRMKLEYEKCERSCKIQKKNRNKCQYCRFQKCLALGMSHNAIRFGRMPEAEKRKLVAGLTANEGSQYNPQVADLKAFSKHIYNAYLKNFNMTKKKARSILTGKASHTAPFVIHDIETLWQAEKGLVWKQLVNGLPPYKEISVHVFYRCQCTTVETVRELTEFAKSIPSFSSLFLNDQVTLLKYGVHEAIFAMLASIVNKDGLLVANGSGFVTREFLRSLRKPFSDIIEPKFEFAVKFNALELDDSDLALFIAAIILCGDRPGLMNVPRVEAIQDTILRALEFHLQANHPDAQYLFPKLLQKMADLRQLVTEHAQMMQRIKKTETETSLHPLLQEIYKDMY
From the text: (§1) As an approach to identifying human PPAR agonists, a Scintillation Proximity Assay was used to characterize PPAR-γ, PPAR-δ, and PPAR-α ligands.
(§2) Human PPARγ2, human PPARδ and human PPARα were expressed as GST-fusion proteins in E. coli. The full length human cDNA for PPARγ 2 was subcloned into the pGEX-2 T expression vector (Amersham Pharmacia Biotech, Inc.). The full length human cDNAs for PPARδ and PPARα were subcloned into the pGEX-KT expression vector (Amersham Pharmacia Biotech, Inc.). E. coli containing the respective plasmids were propagated, induced, and harvested by centrifugation. The resuspended pellet was broken in a French press and debris removed by centrifugation. Recombinant human PPAR receptors were purified by affinity chromatography on glutathione sepharose. After application to the column, and one wash, receptor was eluted with glutathione. Glycerol (10%) was added to stabilize the receptor and aliquots were stored at −80° C.
(§3) After incubation for ˜16 h at 15° C. with shaking, the assay plates were counted in a Packard Topcount with quench correction.

hPPARδ/GAL4 = biological target: T2, hPPARδ/GAL4 (Homo sapiens, UniProt Q03181); test: Gal-4 hPPAR transactivation assay in COS-1 cells (delta); format: cell-based; settings: two values separated by a slash in some cells
T2 construct: expressed in transfected cells; host or cells: COS-1 cells
T2 sequence (P04386 1-147 partner limits assumed, one chain of several): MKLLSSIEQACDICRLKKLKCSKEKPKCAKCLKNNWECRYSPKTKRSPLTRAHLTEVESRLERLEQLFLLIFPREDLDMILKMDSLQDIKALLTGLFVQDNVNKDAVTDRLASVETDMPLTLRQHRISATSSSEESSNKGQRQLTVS
Description: (§4) The chimeric receptor expression constructs, pcDNA3-hPPARγ/GAL4, pcDNA3-hPPARδ/GAL4, pcDNA3-hPPARα/GAL4 were prepared by inserting the yeast GAL4 transcription factor DBD adjacent to the ligand binding domains (LBDs) of hPPARγ, hPPARδ, hPPARα, respectively. The reporter construct, pUAS(5×)-tk-luc was generated by inserting 5 copies of the GAL4 response element upstream of the herpes virus minimal thymidine kinase promoter and the luciferase reporter gene. pCMV-lacZ contains the galactosidase Z gene under the regulation of the cytomegalovirus promoter. COS-1 cells were seeded at 12×10^3 cells/well in 96 well cell culture plates in high glucose Dulbecco's modified Eagle medium (DMEM) containing 10% charcoal stripped fetal calf serum (Gemini Bio-Products, Calabasas, Calif.), nonessential amino acids, 100 units/ml Penicillin G and […] Streptomycin sulfate at 37° C. in a humidified atmosphere of 10% CO2. After 24 h, transfections were performed with Lipofectamine (GIBCO BRL, Gaithersburg, Md.) according to the instructions of the manufacturer. […] Luciferase activity in cell extracts was determined using Luciferase Assay Buffer (Promega, Madison, Wis.) in an ML3000 luminometer (Dynatech Laboratories, Chantilly, Va.). β-galactosidase activity was determined using β-D-galactopyranoside (Calbiochem, San Diego, Calif.).

hPPARα/GAL4 = biological target: T3, hPPARα/GAL4 (Homo sapiens, UniProt Q07869); test: Gal-4 hPPAR transactivation assay in COS-1 cells (alpha); format: cell-based; settings: two values separated by a slash in some cells
T3 construct: expressed in transfected cells; host or cells: COS-1 cells
T3 sequence (Q07869 239-466 limits assumed): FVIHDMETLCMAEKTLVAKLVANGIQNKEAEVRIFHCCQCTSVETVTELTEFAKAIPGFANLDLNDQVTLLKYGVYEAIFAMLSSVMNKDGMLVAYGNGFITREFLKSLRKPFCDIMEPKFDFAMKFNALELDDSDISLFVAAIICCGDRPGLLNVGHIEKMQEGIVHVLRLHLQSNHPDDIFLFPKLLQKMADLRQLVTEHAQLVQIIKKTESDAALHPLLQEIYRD
T3 sequence (P04386 1-147 partner limits assumed): as the sequence (P04386 1-147 partner limits assumed, one chain of several) above
Description: as §4

hPPARγ/GAL4 = biological target: T4, hPPARγ/GAL4 (Homo sapiens, UniProt P37231); test: Gal-4 hPPAR transactivation assay in COS-1 cells (gamma); format: cell-based; settings: two values separated by a slash in some cells
T4 construct: expressed in transfected cells; host or cells: COS-1 cells
T4 sequence (P04386 1-147 partner limits assumed, one chain of several): as above
Description: as §4

[2] = biological target: T5, recombinant human PPARγ (GST-PPARγ) (Homo sapiens, UniProt P37231); test: Scintillation Proximity Assay, displacement of [3H2]Compound A from PPARγ; format: binding; settings: human PPARγ binding; read-out: IC50 (μM: SPA or BND) Gamma
T5 construct: The full length human cDNA for PPARγ 2 was subcloned into the pGEX-2 T expression vector; made in house; host or cells: E. coli
T5 sequence (P37231 1-505): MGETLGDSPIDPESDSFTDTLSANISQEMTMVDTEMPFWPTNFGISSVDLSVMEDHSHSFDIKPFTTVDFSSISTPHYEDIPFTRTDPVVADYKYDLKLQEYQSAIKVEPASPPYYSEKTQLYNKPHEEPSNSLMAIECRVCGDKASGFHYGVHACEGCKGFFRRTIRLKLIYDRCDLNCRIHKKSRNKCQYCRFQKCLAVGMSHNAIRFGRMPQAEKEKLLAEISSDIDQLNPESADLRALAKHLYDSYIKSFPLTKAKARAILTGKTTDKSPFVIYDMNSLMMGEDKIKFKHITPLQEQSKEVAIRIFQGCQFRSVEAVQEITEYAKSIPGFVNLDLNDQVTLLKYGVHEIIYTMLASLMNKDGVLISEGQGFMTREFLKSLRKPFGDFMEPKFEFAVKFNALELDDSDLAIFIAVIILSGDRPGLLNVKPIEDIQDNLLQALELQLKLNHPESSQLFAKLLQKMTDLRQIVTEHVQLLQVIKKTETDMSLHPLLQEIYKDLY
From the text: as §1, §2, §3

[3] = tested on: PPAR-α, PPAR-γ and PPAR-δ; test: Classification of ligands according to their PPAR activity (Table A); set-up: species or system human; settings: classification based on IC50 and EC50 data of Table B

CCCc1cc(Oc2ccccc2)ccc1OCCc1cc2cc(CC(=O)O)ccc2[nH]1 [Compound 2, {2-[2-(4-phenoxy-2-propylphenoxy)ethyl]-1H-indol-5-yl}acetic acid]
IC50 [1]: 15 µM | EC50 (hPPARδ/GAL4): 3 µM | EC50 (hPPARα/GAL4): 1.05 µM and 1.2 µM | EC50 (hPPARγ/GAL4): 0.18 µM and 0.05 µM | IC50 [2]: 0.097 µM | PPAR Activity [3]: Gamma Agonist
